For assay [1], the target named is T1, rSol g 2.1 protein (Solenopsis geminata, UniProt A0A9E7V488).
T1 sequence (A0A9E7V488 1-119): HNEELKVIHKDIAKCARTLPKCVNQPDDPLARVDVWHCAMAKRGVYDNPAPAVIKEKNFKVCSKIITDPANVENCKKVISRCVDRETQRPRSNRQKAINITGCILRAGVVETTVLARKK
Kind of assay: Fluorescence binding assay of 1-NPN probe with rSol g 2.1 (Scatchard plots). The following applies: 50 mM Tris-HCl, ± SEM, triplicate. From the text: The FCBA is that a fluorescence probe, N-phenyl-1-naphthylamine (1-NPN, purity > 98%, Sigma Aldrich) binds with the hydrophobic binding cavity of the protein, especially with Tryptophan amino acid (Trp). Then Trp will transfer energy to 1-NPN-probe, leading to an increased emission wavelength at approximately 400 nm with dose-dependent. Besides, when the aliquot of a ligand competitor, the ligand will be competed for 1-NPN-probe, resulting in a decreased emission wavelength at 400 nm. In this study, we performed the FCBA to determine the binding activity of Sol g 2.1 protein and the potential ligands. […] Fluorescence intensity was measured using a spectrofluorometer (FluoroMax + SpectroFluorometer, Horiba Scientific) with excitation at 337 nm and emission scanning from 370 to 490 nm, at room temperature, in triplicate. The equilibrium dissociation (Kd) value was determined by plotting the fluorescence intensity at 400 nm against each 1-NPN concentration. The data were fitted to a one-site-specific binding model as follows: Y = Bmax*X/(Kd + X), where Y, X, Bmax, and Kd are the fluorescence intensity (counts/second), fluorescence probe concentration (μM), the maximum specific binding in the same units as Y, and the equilibrium dissociation constant in the same units as X.

The target of assay [2] is T1, rSol g 2.1 protein. Kind of assay: Fluorescence competitive binding assay (FCBA), 1-NPN displacement. Conditions: 2 µM rSol g 2.1, 5 µM 1-NPN. From the text: The FCBA is that a fluorescence probe, N-phenyl-1-naphthylamine (1-NPN, purity > 98%, Sigma Aldrich) binds with the hydrophobic binding cavity of the protein, especially with Tryptophan amino acid (Trp). Then Trp will transfer energy to 1-NPN-probe, leading to an increased emission wavelength at approximately 400 nm with dose-dependent. Besides, when the aliquot of a ligand competitor, the ligand will be competed for 1-NPN-probe, resulting in a decreased emission wavelength at 400 nm. In this study, we performed the FCBA to determine the binding activity of Sol g 2.1 protein and the potential ligands. To examine affinity binding, a stock solution of 5 mM 1-NPN in methanol (HPLC grade) was gradually added to a solution containing 2 µM rSol g 2.1 in 50 mM Tris–HCl buffer (pH 5.5 and pH 7.4) with 1% tween 20. Final concentrations of 0, 0.5, 1, 2, 4, 6, 8, 10, and 12 µM of 1-NPN were achieved, with methanol serving as a negative control. Fluorescence intensity was measured using a spectrofluorometer (FluoroMax + SpectroFluorometer, Horiba Scientific) with excitation at 337 nm and emission scanning from 370 to 490 nm, at room temperature, in triplicate. The equilibrium dissociation (Kd) value was determined by plotting the fluorescence intensity at 400 nm against each 1-NPN concentration. The data were fitted to a one-site-specific binding model as follows: Y = Bmax*X/(Kd + X), where Y, X, Bmax, and Kd are the fluorescence intensity (counts/second), fluorescence probe concentration (μM), the maximum specific binding in the same units as Y, and the equilibrium dissociation constant in the same units as X.
The potential ligands, including (E)-β-Farnesene, α-Caryophyllene, and 1-Octen-3-ol (all, Tokyo Chemical Industry (TCI), Tokyo, Japan) were used as competitors in the FCBA. For this, a mixture of 2 µM rSol g 2.1 protein and 5 µM 1-NPN in 50 mM Tris–HCl buffer (pH 5.5 and pH 7.4) with 1% tween 20 was titrated with each ligand (5 mM stock in methanol) to final concentrations of 0, 2, 4, 6, 8, 10, 12, 14, 20, 24, 28, and 32 µM. The fluorescence intensity at 400 nm for each concentration was fitted to the One Site-Fit Ki model to determine the dissociation constant of competitor ligands (Ki) as follows: logEC50 = log (10^logKi*(1 + RadioligandNM/HotKdNM))[22],[57]. Here, RadioligandNM represents the concentration of fixed 1-NPN (nM), HotKdNM represents Kd (nM), and Ki represents the equilibrium dissociation constant (Molar). All experiments were conducted in triplicate and analyzed using GraphPad Prism 9 software (San Diego, CA, USA)[22].

Structures are written as SMILES.

As a reminder, the Kd is the free concentration of one partner at which half of the binding sites on the other are occupied at equilibrium, for simple one-to-one binding. With `c1ccc(Nc2cccc3ccccc23)cc1` [1-NPN, N-phenyl-1-naphthylamine], the dissociation constant (Kd) in assay [1] (pH 5.5) worked out at 4.83 ± 0.03 µM; in assay [1] (pH 7.4), 2.33 ± 0.05 µM.

One may read the Ki as the dissociation constant of the complex between target and ligand, obtained from inhibition or displacement. With `C=CC(=C)CC/C=C(\C)CCC=C(C)C` [(E)-β-Farnesene], the Ki was 1.24 µM in assay [2] (pH 5.5) and 0.72 µM in assay [2] (pH 7.4).

As to `C=CC(O)CCCCC` (centres unmarked) [1-Octen-3-ol], the Ki is 5.61 µM in assay [2] (pH 5.5) and 2 µM in assay [2] (pH 7.4).

With `C/C1=C\CC/C(C)=C/CC(C)(C)/C=C/C1` [α-Caryophyllene], the inhibition constant Ki turned out to be 16 µM in assay [2] (pH 5.5) and 1.06 µM in assay [2] (pH 7.4).

The record behind these values is article PMC11391043, “Revealing the pH-dependent conformational changes in sol g 2.1 protein and potential ligands binding” (Scientific Reports, 2024).
